From patent US20100083405A1, “Method For Controlling Seed Germination In Non-Dormant Seeds And Use Thereof” (priority 2008, published 2010)

Tests used:
WT/35S::HA-ABI5 seeds [1] = assay: Germination assay, WT/35S::HA-ABI5 seeds; format: in vivo, Arabidopsis
Source text: (§1) Wild type (WT) Arabidopsis (Columbia ecotype) was used. The transgenic Arabidopsis line (Ler ecotype) constitutively overexpressing and accumulating ABI5 protein fused to hemagglutinin (HA) peptide tag (referred to as WT/35S::HA-ABI5 plants) was generated as described in Lopez-Molina et al., 2001, above. Transgenic Arabidopsis lines were generated using the Agrobacterium tumefaciens vacuum-infiltration method (Bechtold and Pelletier, 1998, Methods Mol. Biol. 82, 259-266). Seeds (T1) from infiltrated plants were plated in selection medium as described (Zuo et al., 2000, above; Lopez-Molina et al., 2001, above). Non-dormant seeds are used in absence of seed stratification procedure. The infiltration in the plant ovule is performed following the standard “Floral Dip” (Arabidopsis protocol Edited by J M Martinez-Zapater and Julio Salina. Humana Press, “In Planta Agrobacterium-Mediated Transformation of Adult Arabidopsis thaliana Plants by Vacuum infiltration”, Page 259).
(§2) When seeds are sown under “normal conditions” it refers to conditions where seeds are imbibed in a standard germination medium and provided with light (germination assay condition below). “ABA conditions” and “low GA conditions” are respectively conditions where ABA (e.g. 5 μM) and paclobutrazol (e.g. 5 μM, PAC), an inhibitor of GA synthesis, are added to the medium. […]

WT seed = assay: Germination assay, WT seeds; format: in vivo, Arabidopsis; conditions: low PAC concentrations (0.125 μM)
Source text: as §1, §2

ABI5 [2] = assay: ABI5 mRNA and protein levels (Northern and Western blot) in WT seeds; format: in vivo, Arabidopsis
Procedure: Total RNA extraction was performed as described by Vicient and Delseny, 1999, Anal. Biochem., 268, 412-413. Northern blot hybridizations were by standard procedures; RNA immobilized on membranes was stained with methylene blue and used as a loading control (Sambrook et al., 1989, above). For ABI5, full length ORF DNA probe (SEQ ID NO: 1) were amplified from cDNA with 5′[…] (SEQ ID NO: 8) 5′ […] (SEQ ID NO: 9).
The mRNA and protein expression of ABI5 was characterized in WT (Columbia ecotype) seeds at different times after their imbibition.
Under normal conditions, ABI5 mRNA and protein levels decreased from peak levels in WT dry seeds (DS) to undetectable levels 24 h to 48 h after imbibition as shown respectively by Northern blot (2 μg of total RNA per lane) and Western blot analyses (10 μg of total protein per lane), where protein extracts were stained with red Ponceau prior to incubation with antibodies against ABI5 (Ponceau) (FIGS. 2A and 2B) (Lopez-Molina et al., 2001, above).

HA-ABI5 [3] = assay: HA-ABI5 mobility/phosphorylation (Western blot) in WT/35S::HA-ABI5 seeds; format: in vivo, Arabidopsis
Procedure: (§3) The methods used were as described in Lopez-Molina et al., 2001, above.
Thus, low GA levels also stimulate ABI5 activity and phosphorylation. […] An antibody to HA was used to reveal HA-ABI5 protein. λ phosphatase was inactivated by heat (65° C. for 20 min).

[4] = test system: WT/35S::HA-ABI5 plants transformed with the ind::HA-PKABA1 DNA construct; assay: Germination assay, WT/35S::HA-ABI5 transformed with ind::HA-PKABA1; format: in vivo, Arabidopsis
Procedure: All seed batches compared in this study were harvested on the same day from plants grown side by side (i.e. identical environmental conditions). Dry siliques were obtained about 8 weeks after planting and left for a further 4 weeks at room temperature prior to seed harvesting. Seeds were then permanently stored at 4° C. Seeds obtained in this manner lacked dormancy. A minimum of three independently grown seed batches were used for measuring percent TR and ER. For TR and ER assays, seeds were surface sterilized as described in Lopez-Molina and Chua, 2000, above, and sown in plates with MS medium containing 0.8% (wt/vol.) Bacto-Agar (Applichem). Plates were incubated in a climate-controlled room (20-25° C., 16 h light/day, light intensity 80 ME/m^2/s, humidity 70%). Between 100 and 300 seeds were examined with a Stemi 2000 (Zeiss) stereomicroscope and photographed with a high-resolution digital camera (Canon Power G6, 7.1 Megapixels) at different times of seed imbibition. Photographs were enlarged electronically for measurement of TR and ER.
The first primer contains an XhoI site and the HA sequence (MYPYDVPDYASL (SEQ ID NO: 5) of SEQ ID NO:10), while the second contains a SpeI site. Both restriction sites were used for cloning into a plasmid pER8 (AN AF309825) such as described in Zuo et al., 2000, Plant J., 24, 265-273. […]

HA-PKABA1 = HA-PKABA1 protein levels (Western blot) in seeds transformed with ind::HA-PKABA1; format: in vivo, Arabidopsis; conditions: 50 μM 17β-estradiol, 48 h after seed imbibition, normal conditions
Source text: The first primer contains an XhoI site and the HA sequence (MYPYDVPDYASL (SEQ ID NO: 5) of SEQ ID NO:10), while the second contains a SpeI site. Both restriction sites were used for cloning into a plasmid pER8 (AN AF309825) such as described in Zuo et al., 2000, Plant J., 24, 265-273. The resulting ind::HA-PKABA1 binary vector was then transformed into previously described WT/35S::HA-ABI5 line (Zuo et al., 2000, above; Lopez-Molina et al., 2001, above). As a negative control, WT plants were transformed with the same ind::HA-PKABA1 construct.

WT/35S::HA-ABI5 seeds [5] = conditions: low ABA concentration 0.5 μM; cited from earlier work
HA-ABI5 [6] = conditions: low ABA concentration 0.5 μM; cited from earlier work
ABI5 [7] = assay: ABI5 protein levels (Western blot) in gal-3 seeds; format: in vivo, Arabidopsis; conditions: gal-3 seeds treated with GA, as early as 48 hours after imbibition
HA-ABI5 [8] = assay: HA-ABI5 mobility/phosphorylation (Western blot) in WT/35S::HA-ABI5 lines transformed with ind::HA-PKABA1; format: in vivo, Arabidopsis; conditions: excess GA in the medium, inducer present
Procedure: as §3
The mobility differences of HA-ABI5 protein isolated from WT/35S::HA-ABI5 lines transformed with a ind::HA-PKABA1 DNA construct are analyzed by Western blot under the indicated germination conditions. As observed upon ABA treatment, induction of HA-PKABA1 protein triggered ABI5 phosphorylation, detected as a slower ABI5 protein mobility, which could be eliminated upon phosphatase treatment (FIG. 4B).

HA-ABI5, Q9SJN0 = biological target: T1, HA-ABI5, Q9SJN0
T1 chain: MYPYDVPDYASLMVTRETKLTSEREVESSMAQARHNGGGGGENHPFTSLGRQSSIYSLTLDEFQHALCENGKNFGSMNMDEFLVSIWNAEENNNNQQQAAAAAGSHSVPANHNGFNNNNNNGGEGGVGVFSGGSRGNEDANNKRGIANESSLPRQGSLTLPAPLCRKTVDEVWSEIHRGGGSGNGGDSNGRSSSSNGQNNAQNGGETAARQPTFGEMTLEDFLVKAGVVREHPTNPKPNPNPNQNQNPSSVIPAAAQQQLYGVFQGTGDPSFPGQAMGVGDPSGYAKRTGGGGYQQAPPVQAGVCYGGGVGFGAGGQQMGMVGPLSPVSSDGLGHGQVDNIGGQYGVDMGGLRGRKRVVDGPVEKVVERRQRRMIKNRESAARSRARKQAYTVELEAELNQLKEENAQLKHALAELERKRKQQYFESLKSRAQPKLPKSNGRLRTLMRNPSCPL

[9] = GA 50 μM added to the germination medium with ABA

Question: With CC(C)(C)[C@@H](O)[C@@H](Cc1ccc(Cl)cc1)n1cncn1 (racemic) [PAC, paclobutrazol] as the molecule, how does the seeds germinated (WT/35S::HA-ABI5 seeds [1]; after one week on 0.125 μM PAC) read?
Answer: less than 20%

Question: What about the WT seed germination (WT seed) of the same molecule?
Answer: do not prevent WT seed germination

Question: And the “ABI5 expression (mRNA and protein)” value (ABI5 [2]; 5 μM PAC, up to 96 hours after imbibition)?
Answer: increased and maintained ABI5 expression

Question: And the “HA-ABI5 migration in SDS-PAGE gels” value (HA-ABI5 [3]; PAC 0.125 μM)?
Answer: slower HA-ABI5 migration

Question: For C[C@]12CC[C@@H]3c4ccc(O)cc4CC[C@H]3[C@@H]1CC[C@@H]2O [17β-estradiol], which “germination after removal of the inducer” value ([4]; 24 h to 56 h upon transfer to medium without inducer (50 μM before)) is on record?
Answer: 100%

Question: What about the HA-PKABA1 protein levels (HA-PKABA1) of the same molecule?
Answer: could be detected only in presence of the inducer

Question: With CC1=CC(=O)CC(C)(C)[C@@]1(O)/C=C/C(C)=C\C(=O)O [ABA, abscisic acid] as the molecule, how does the “ABI5 mRNA and protein expression” value (ABI5 [2]; ABA 5 μM, after imbibition) read?
Answer: stimulated

Question: What about the germination response (WT/35S::HA-ABI5 seeds [5]) of the same molecule?
Answer: hypersensitive responses

Question: And the HA-ABI5 phosphorylation (HA-ABI5 [6])?
Answer: triggered HA-ABI5 phosphorylation

Question: Which results are given for gibberellins [GA]?
Answer: repression of seed germination imposed by ABA (WT/35S::HA-ABI5 seeds [1]; [9]): did not overcome the repression of seed germination imposed by ABA; inducer-imposed germination arrest ([4]; additional GA 50 μM in the medium, inducer present): did not counteract the inducer-imposed arrest; ABI5 protein (ABI5 [7]): could not be detected; ABA-dependent ABI5 phosphorylation (HA-ABI5 [3]; [9]): did not alter ABA-dependent ABI5 phosphorylation; HA-PKABA1-dependent phosphorylation of ABI5 (HA-ABI5 [8]): did not prevent HA-PKABA1-dependent phosphorylation of ABI5

B1: HA-PKABA1 (protein)
chain: MYPYDVPDYASLMDRYEVVRDIGSGNFGVAKLVRDVRTREHFAVKFIERGHKIDEHVQREIMNHRSLKHPNIIRFKEVVLTPTHLAIVMEYASGGELFQRICNAGRFSEDEGRFFFQQLISGVSYCHSMQVCHRDLKLENTLLDGSVAPRLKICDFGYSKSSVLHSQPKSTVGTPAYIAPEVLSRREYDGKVADVWSCGVTLYVMLVGAYPFEDPDEPRNFRKTIARILSVQYSVPDYVRVSMDCIHLLSRIFVGNPQQRITIPEIKNHPWFLKRLPVEMTDEYQRGMQLADMNTPSQSLEEAMAIIQEAQKPGHNALGLAGQVACLGSMDLDDIDFDVDDIDIENSGDFVCPL
Question: Which “ABI5 phosphorylation in planta, seen as slower HA-ABI5 mobility on Western blot (SDS-PAGE), sensitive to phosphatase” value (HA-ABI5, Q9SJN0) does the source give for B1 here?
Answer: induction of HA-PKABA1 protein triggered ABI5 phosphorylation, detected as a slower ABI5 protein mobility, which could be eliminated upon phosphatase treatment
